Results published in patent publication US11319322B2, “Substituted aryl ether compound, preparation method thereof, pharmaceutical composition and use thereof” (Xiamen University, priority 2017, dated 2022).

Assays:
Assay type in all cases: cell-based
[1] = target: T1, CCDC6-RET-BaF3 (Homo sapiens, UniProt P07949); test: Growth inhibition of CCDC6-RET-BaF3 cells stably transfected with kinase (MTS); details: 48 h, read-out: CCDC6-RET (IC50/nM)
T1 construct: fused on or other part: Q16204 (Coiled-coil domain-containing protein 6)
Method in brief: (§1)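 BaF3 cells stably expressing CCDC6-RET or KIF5B-RET, or parental BaF3, 2×10^4 cells/well, treated 48 h at 37 °C with 8-point 1:3 dilutions from 10 μM (0.1% DMSO). MTS/PES added 1–4 h, OD490 read; inhibition versus DMSO and blank gave IC50.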

[2] = target: T2, KIF5B-RET-BaF3 (Homo sapiens, UniProt P07949); test: Growth inhibition of KIF5B-RET-BaF3 cells stably transfected with kinase (MTS); details: 48 h, read-out: KIF5B-RET (IC50/nM)
T2 construct: fused on or other part: P33176 (Kinesin-1 heavy chain)
Method in brief: as §1

[3] = test system: wild-type BaF3; test: Growth inhibition of wild-type BaF3 cells, broad-spectrum toxicity (MTS); details: Mus musculus, 48 h, read-out: WT Ba/F3 (IC50/nM)
Protocol: Growth inhibitory activity of compounds on cell lines stably transfected with kinase
The activity of compounds against kinase RET is evaluated by their effect of inhibiting growth of cell lines stably transfected with kinase CCDC6-RET-BaF3, KIF5B-RET-BaF3, and wild-type BaF3 (Proc. Natl. Acad. Sci. USA., 2006, 103, 3153-8.). The growth of the cell lines stably transfected with kinase CCDC6-RET-BaF3, KIF5B-RET-BaF3 depends on their kinase activity. If a compound can inhibit the activity of the kinase RET per se or the activity of the RET signaling pathway, the compound can inhibit the growth of BaF3 cells stably transfected with kinase. […] Therefore, a larger ratio between IC50 of a compound to wild-type BaF3 and IC50 of the compound to the cell lines stably transfected with kinase CCDC6-RET-BaF3, KIF5B-RET-BaF3 indicates better targeting.
The specific test method is given as follows:
1) Medium: DMEM (Dulbecco's modified eagle medium) or RPMI 1640 (containing 10% fetal bovine serum, 100 μg/mL ampicillin, 100 μg/mL streptomycin).
2) Reagents: MTS reaction solution (containing 2 mg/mL of MTS [3-(4,5-dimethylthiazol-2-yl)-5-(3-carboxymethoxyphenyl)-2-(4-sulfophenyl)-2H-tetrazolium, inner Salt]; 100 μg/mL PES (phenazine […])).
3) Compound test: cells stably transfected with kinase (CCDC6-RET-BaF3, KIF5B-RET-BaF3) or wild-type BaF3 cells (2×10^4 cells/well) were incubated into a 96-well culture plate, the volume of cell culture fluid was 90 μL, and then 10 μL of the compound at each gradient concentration was added (the highest concentration was 10 μM, which was diluted stepwise by ⅓, and 8 concentration points were set in total; the system contained 0.1% DMSO (dimethyl sulfoxide)). The cell plate with uniformly mixed compound was cultured in a cell culture incubator (37° C.; 5% CO2) for 48 h, then 20 μL of MTS reaction solution was added, uniformly mixed and incubated in the cell culture incubator (37° C.; 5% CO2) for 1-4 hr, OD values at 490 nm were measured by a microplate reader (VARIOSKAN FLASH, Thermo). Three parallels were set in each group of experiments, with 0.1% (a final concentration) DMSO as a negative control, and a medium without cells or compounds as a blank control. The cell growth inhibition rate was calculated by the following formula: Cell growth inhibition rate %=1−(ODexperimental group−ODblank group)/(ODnegative group−ODblank group)×100%
4) IC50 calculation: The semi-inhibitory concentration of the compound acting on cell growth was calculated using GradPad Prism 5 software according to the measured cell growth inhibition rate.

T1 sequence (P07949 whole entry, change not shown, the tested form may be a part): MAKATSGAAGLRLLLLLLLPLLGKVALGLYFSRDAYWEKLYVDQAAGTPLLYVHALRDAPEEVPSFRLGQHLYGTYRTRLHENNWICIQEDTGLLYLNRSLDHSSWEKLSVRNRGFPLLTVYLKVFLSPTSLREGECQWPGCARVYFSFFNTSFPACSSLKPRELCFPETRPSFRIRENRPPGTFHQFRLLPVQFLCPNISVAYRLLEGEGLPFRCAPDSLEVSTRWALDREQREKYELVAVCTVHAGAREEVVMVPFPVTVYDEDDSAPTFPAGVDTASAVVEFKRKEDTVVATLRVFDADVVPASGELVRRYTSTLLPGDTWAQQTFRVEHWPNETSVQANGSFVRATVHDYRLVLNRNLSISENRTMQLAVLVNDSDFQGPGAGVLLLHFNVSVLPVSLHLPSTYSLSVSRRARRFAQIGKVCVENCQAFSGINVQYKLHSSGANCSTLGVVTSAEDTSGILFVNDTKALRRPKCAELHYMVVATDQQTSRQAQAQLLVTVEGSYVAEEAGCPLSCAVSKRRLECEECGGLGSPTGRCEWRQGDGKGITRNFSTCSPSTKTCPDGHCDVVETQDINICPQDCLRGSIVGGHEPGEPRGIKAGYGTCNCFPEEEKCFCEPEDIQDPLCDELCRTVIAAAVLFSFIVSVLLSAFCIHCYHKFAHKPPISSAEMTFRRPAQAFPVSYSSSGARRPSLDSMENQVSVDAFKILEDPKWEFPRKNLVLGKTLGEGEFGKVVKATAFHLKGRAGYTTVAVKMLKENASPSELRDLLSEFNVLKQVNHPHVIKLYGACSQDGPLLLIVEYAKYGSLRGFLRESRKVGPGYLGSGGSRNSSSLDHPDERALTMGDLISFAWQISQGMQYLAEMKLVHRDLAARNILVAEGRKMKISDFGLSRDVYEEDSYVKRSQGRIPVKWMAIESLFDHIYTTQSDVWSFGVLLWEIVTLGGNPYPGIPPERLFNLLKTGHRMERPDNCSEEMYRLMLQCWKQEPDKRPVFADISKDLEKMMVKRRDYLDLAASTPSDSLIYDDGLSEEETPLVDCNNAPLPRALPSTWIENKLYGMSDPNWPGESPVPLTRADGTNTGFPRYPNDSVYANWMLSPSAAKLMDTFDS
T2 sequence (P07949 whole entry, change not shown, the tested form may be a part): as above

| SMILES | GI50 [1] [nM] | GI50 [2] [nM] | IC50 [3] [nM] |
| --- | --- | --- | --- |
| CN1CCN(Cc2ccc(NC(=O)c3cccc(Oc4nc(-c5ccncc5)nc5c4ncn5C)c3)cc2C(F)(F)F)CC1 [I-l-3] | 25.2 | 5.88 | > 10000 |
| Cc1ccc(Oc2nc(-c3ccncc3)nc3cc[nH]c23)cc1C(=O)Nc1cc(CN2CCN(C)CC2)cc(C(F)(F)F)c1 [III-r-2] | 386 | 535 | 4130 |
| Cc1ccc(Oc2nc(-c3cccnc3)nc3[nH]ncc23)cc1NC(=O)c1ccc(CN2CCN(C)CC2)c(C(F)(F)F)c1 [II-j-5] | 2370 | 3890 | 7400 |
| CNc1nc(Oc2cc(C(=O)Nc3ccc(CN4CCN(C)CC4)c(C(F)(F)F)c3)ccc2C)c2c(ccn2C)n1 [III-m-19] | 2510 | 3270 | 4020 |
| Cc1ccc(NC(=O)c2ccc(CN3CCN(C)CC3)c(C(F)(F)F)c2)cc1Oc1nc(-c2cccnc2)nc2ccsc12 [VI-i-1] | 1950 | 1470 | 1530 |
| Cc1ccc(Oc2nc(-c3ccc(O)cc3)nc3ccn(C)c23)cc1NC(=O)c1ccc(CN2CCN(C)CC2)c(C(F)(F)F)c1 [III-j-14] | 876 | 1380 | 1340 |
| Cc1ccc(Oc2nc(-c3ccc(Cl)cc3)nc3cc[nH]c23)cc1NC(=O)c1ccc(CN2CCN(C)CC2)c(C(F)(F)F)c1 [III-j-11] | 1530 | 1570 | 1360 |
| Cc1ccc(C(=O)Nc2cc(CN3CCN(C)CC3)cc(C(F)(F)F)c2)cc1Oc1nc(-c2ccncc2)nc2ccsc12 [VI-q-2] | 1520 | 1470 | 1520 |
| Cc1ccc(Oc2nc(-c3ccccc3)nc3ccn(C)c23)cc1NC(=O)c1ccc(CN2CCN(C)CC2)c(C(F)(F)F)c1 [III-j-7] | 1270 | 1370 | 2560 |
| Cc1ccc(C(=O)Nc2ccc(CN3CCN(C)CC3)c(C(F)(F)F)c2)cc1Oc1cc(-c2ccncc2)nc2[nH]ccc12 [V-m-2] | 1350 | 978 | 905 |
| Cc1ccc(Oc2ncnc3ccn(C)c23)cc1NC(=O)c1ccc(CN2CCN(C)CC2)c(C(F)(F)F)c1 [III-j-18] | 477 | 1350 | > 10000 |
| Cc1ccc(C(=O)Nc2ccc(CN3CCN(C)CC3)c(C(F)(F)F)c2)cc1Oc1nc(-c2ccncc2)nc2[nH]cnc12 [I-m-1] | 504 | 810 | > 10000 |
| CCC(=O)NCC1CCN(c2ccc(NC(=O)c3ccc(C)c(Oc4nc(-c5ccncc5)nc5[nH]ncc45)c3)cc2C(F)(F)F)CC1 [II-v-17] | 900 | 1040 | – |
| Cc1ccc(NC(=O)c2ccc(CN3CCN(C)CC3)c(C(F)(F)F)c2)cc1Oc1nc(-c2ccncc2)nc2ccsc12 [VI-i-2] | 5700 | 7420 | – |
| CCS(=O)(=O)NC1CCN(c2ccc(NC(=O)c3ccc(C)c(Oc4nc(-c5ccncc5)nc5c4cnn5C)c3)cc2C(F)(F)F)CC1 [II-v-15] | 114 | 135 | – |
| CC(=O)NC1CCN(c2ccc(NC(=O)c3ccc(C)c(Oc4nc(-c5ccncc5)nc5c4cnn5C)c3)cc2C(F)(F)F)CC1 [II-v-13] | 533 | 587 | – |
| CN1CCN(Cc2ccc(C(=O)Nc3cccc(Oc4nc(-c5ccncc5)nc5c4cnn5C)c3)cc2C(F)(F)F)CC1 [II-h-2] | 140 | 106 | – |
| Cc1ccc(C(=O)Nc2ccc(CN3CCN(C)CC3)c(C(F)(F)F)c2)cc1Oc1nc(-c2ccncc2)nc2c1cnn2C(C)C [II-m-23] | 1100 | 916 | – |
| Cc1ccc(C(=O)Nc2ccc(CN3CCN(C)CC3)c(C(F)(F)F)c2)cc1Oc1nc(N2CCN(C)CC2)nc2c1cnn2C [II-m-17] | 1100 | 160 | – |
| Cc1ccc(NC(=O)c2cccc(C(F)(F)F)c2)cc1Oc1nc(-c2ccncc2)nc2nn(C)cc12 [IV-b-2] | 5870 | 4170 | – |

Continued, in another order:

| GI50 [1] [nM] | GI50 [2] [nM] | SMILES | IC50 [3] [nM] |
| --- | --- | --- | --- |
| 97.6 | 464 | Cc1ccc(Oc2nc(-c3ccoc3)nc3cc[nH]c23)cc1NC(=O)c1ccc(CN2CCN(C)CC2)c(C(F)(F)F)c1 [III-j-9] | 4260 |
| 10.6 | 74.3 | Cc1ccc(C(=O)Nc2ccc(CN3CCN(C)CC3)c(C(F)(F)F)c2)cc1Oc1nc(-c2cccnc2)nc2[nH]ncc12 [II-m-20] | > 10000 |
| 221 | 1180 | Cc1ccc(Oc2nc(-c3ccoc3)nc3c2ncn3C)cc1NC(=O)c1ccc(CN2CCN(C)CC2)c(C(F)(F)F)c1 [I-j-6] | 4220 |
| 234 | 428 | Cc1ccc(Oc2nc(-c3ccoc3)nc3ccn(C)c23)cc1NC(=O)c1ccc(CN2CCN(C)CC2)c(C(F)(F)F)c1 [III-j-10] | 1460 |
| 187 | 325 | Cc1ccc(Oc2nc(-c3ccncc3)nc3ccn(C)c23)cc1C(=O)Nc1cc(CN2CCN(C)CC2)cc(C(F)(F)F)c1 [III-r-4] | 1380 |
| 73.4 | 240 | Cc1ccc(C(=O)Nc2ccc(CN3CCN(C)CC3)c(C(F)(F)F)c2)cc1Oc1nc(-c2ccncc2)nc2[nH]ncc12 [II-m-21] | 4780 |
| 1320 | 1390 | CN1CCN(Cc2ccc(NC(=O)c3cc(Oc4nc(-c5ccc(Cl)cc5)nc5c4ncn5C)ccc3Cl)cc2C(F)(F)F)CC1 [I-o-5] | – |
| 1690 | 1780 | Cc1ccc(Oc2cc(-c3cccnc3)nc3sccc23)cc1C(=O)Nc1ccc(CN2CCN(C)CC2)c(C(F)(F)F)c1 [VII-n-1] | – |
| 2700 | 2370 | Cc1ccc(Oc2nc(-c3ccccc3)nc3c2ncn3C)cc1C(=O)Nc1ccc(CN2CCN(C)CC2)c(C(F)(F)F)c1 [I-n-4] | – |
| 3900 | 1710 | Cc1ccc(Oc2nc(-c3cccc(Cl)c3)nc3nn(C)cc23)cc1C(=O)Nc1ccc(CN2CCN(C)CC2)c(C(F)(F)F)c1 [IV-n-4] | – |
| 1980 | 1720 | CN1CCN(Cc2ccc(NC(=O)c3cc(Oc4nc(-c5cccnc5)nc5nn(C)cc45)ccc3Cl)cc2C(F)(F)F)CC1 [IV-o-1] | – |
| 172 | 152 | CN1CCN(Cc2ccc(NC(=O)c3cc(Oc4nc(-c5cccc(N)c5)nc5nn(C)cc45)ccc3Cl)cc2C(F)(F)F)CC1 [IV-o-8] | – |
| 88.6 | 12.1 | CN1CCN(Cc2ccc(NC(=O)c3cc(Oc4nc(-c5ccncc5)nc5nn(C)cc45)ccc3Cl)cc2C(F)(F)F)CC1 [IV-o-2] | – |
| 4090 | 3390 | CN1CCN(Cc2ccc(NC(=O)c3cc(Oc4nc(-c5ccc(Cl)cc5)nc5nn(C)cc45)ccc3Cl)cc2C(F)(F)F)CC1 [IV-o-5] | – |
| 5220 | 4210 | Cc1ccc(Oc2nc(-c3ccsc3)nc3nn(C)cc23)cc1C(=O)Nc1ccc(CN2CCN(C)CC2)c(C(F)(F)F)c1 [IV-n-11] | – |
| 1780 | 1380 | Cc1ccc(Oc2nc(-c3ccc(Cl)cc3)nc3c2ncn3C)cc1C(=O)Nc1ccc(CN2CCN(C)CC2)c(C(F)(F)F)c1 [I-n-6] | – |
| 3610 | – | CN1CCN(Cc2ccc(NC(=O)c3cccc(Oc4nc(-c5cccnc5)nc5c4ncn5C)c3)cc2C(F)(F)F)CC1 [I-l-2] | 1360 |
| 1400 | 1410 | CN1CCN(Cc2ccc(NC(=O)c3cc(Oc4nc(-c5cccc(Cl)c5)nc5c4ncn5C)ccc3Cl)cc2C(F)(F)F)CC1 [I-o-4] | – |
| 2160 | 1840 | Cc1ccc(Oc2nc(-c3ccoc3)nc3nn(C)cc23)cc1C(=O)Nc1ccc(CN2CCN(C)CC2)c(C(F)(F)F)c1 [IV-n-10] | – |
| 3010 | 4850 | Cc1ccc(Oc2ncnc3c2ncn3C)cc1C(=O)Nc1ccc(CN2CCN(C)CC2)c(C(F)(F)F)c1 [I-n-13] | – |
| 903 | 1210 | CN1CCN(Cc2ccc(NC(=O)c3cc(Oc4nc(-c5ccc(O)cc5)nc5c4ncn5C)ccc3Cl)cc2C(F)(F)F)CC1 [I-o-7] | – |
